Data: paper PMC6346587, “Glucose 6-phosphate dehydrogenase 6-phosphogluconolactonase: characterization of the Plasmodium vivax enzyme and inhibitor studies” (Malaria Journal, 2019)

What was measured:
[1] = system: P. falciparum 3D7[hGrx1-roGFP2] cytosolic glutathione-dependent redox potential; experiment: Cytosolic glutathione redox sensor hGrx1-roGFP2, confocal live cell imaging (CLSM); assay type: cell-based, Plasmodium falciparum; details: for Oxidation of the hGrx1-roGFP2 sensor: comparable to 1 mM DIA
Procedure: A Leica confocal system TCS SP5 inverted microscope equipped with the objective HCX PL APO 63.0 × 1.30 GLYC 37 °C UV connected to a 37 °C temperature chamber was used. The argon laser power was set to 20%; scanning was performed at 400 Hz frequency and at a 512 × 512 pixel resolution. The smart gain and smart offset were 950 V and −0.9%, respectively. With a sequential scan, the hGrx1–roGFP2 probe was excited at 405 nm and at 488 nm and emission was detected at 500–550 nm. Laser intensity was adjusted to match the full dynamic range of the probe to the dynamic range of the detector (405 nm: 10%, 488 nm: 4%). […] The Leica LAS AF Lite software for fluorescence analysis was used. The 405/488 nm ratio was calculated. The graphs were plotted using the GraphPad Prism 5 software (San Diego, CA, USA). For live cell imaging, only parasites showing fluorescent signals at both 405 and 488 nm excitation and an intact host cell were chosen.
The effect of ML304 and the anti-malarial drugs ATS and CQ as reference drugs on P. falciparum were investigated in 4 h and 24 h incubation experiments. […] For 4 h experiments, trophozoite stage parasites (26–30 h) of 3D7^[hGrx1–roGFP2] and NF54^[hGrx1–roGFP2] (6–8% parasitaemia) were magnetically enriched (Miltenyi Biotec, Germany), counted by using a Neubauer hemocytometer (Brand GmbH, Germany), and returned to cell culture (at 2.0 × 10^4 trophozoites μL^−1) for at least 1 h to recover. 1.0 × 10^6 cells in 100 μL cell culture medium were placed into LoBind tubes (Eppendorf, Hamburg, Germany) for 4 h incubation experiments. The parasites were treated with ML304 at 1 μM, 50 μM, and 100 μM, or with the anti-malarial drugs ATS and CQ at approximately 50 × EC50 for 4 h under cell culture conditions. Subsequently, free thiol groups were blocked with 2 mM N-ethylmaleimide (NEM) for 15 min at 37 °C. For 24 h experiments, a 5 mL culture (5% haematocrit, 6–8% parasitaemia) of ring stage parasites (6–10 h post invasion) was treated with ML304 at 1 μM, 5 μM, and 10 μΜ, or the anti-malarial drugs ATS and CQ at approximately 4 × EC50. Prior to enrichment, cysteines were blocked with 2 mM NEM for 15 min at 37 °C. For 4 h and 24 h experiments, cells were washed after incubation and resuspended in Ringer’s solution (122.5 mM NaCl, 5.4 mM KCl, 1.2 mM CaCl2, 0.8 mM MgCl2, 11 mM D-glucose, 25 mM HEPES, 1 mM NaH2PO4, pH 7.4). 50 μL of cells (1.0 × 10^6 cells 50^−1 μL^−1) were seeded onto poly-L-lysine-coated μ-Slides 18 well (flat) (Ibidi, Martinsried, Germany) and measured using CLSM (confocal laser scanning microscopy) with excitation wavelengths at 405 nm and 488 nm. […] Each experiment was carried out three times. Between 10 and 20 microscopy images were taken each time, resulting in at least 30 experimental values per concentration and incubation time. The obtained ratio values were normalized to the control value, which was set to 100. All experiments were carried out within 6 weeks after the appearance of transfectants. Mean and standard error of the mean (SEM) are shown. A one-way ANOVA test with 95% confidence intervals with the Dunnett’s multiple comparison test (GraphPad Prism 5.0) was applied for statistical analysis of significance (*p < 0.05; **p < 0.01; ***p < 0.001).

[2] = system: Plasmodium gametocytes; details: cited from earlier work
[3] = target: T1, recombinant hGrx1-roGFP2 (Homo sapiens, UniProt P35754); experiment: In vitro interaction with recombinant hGrx1-roGFP2 probe; assay type: biochemical; details: at the concentrations used in this study
T1 construct: made in house
Procedure: The sensor hGrx1–roGFP2 (human glutaredoxin 1-reduction–oxidation sensitive green fluorescent protein 2) was recently transiently expressed in 3D7 P. falciparum parasites by using the pARL1a(+) expression vector. Heterologous overexpression of hGrx1–roGFP2 for the evaluation of the in vitro interactions of ML304 and anti-malarial drugs with the recombinant redox probe was performed according to [35].
ML304 was used at concentrations of 10 nM to 1 mM in degassed standard reaction buffer (100 mM potassium phosphate, 1 mM EDTA, pH 7.0). […] The characterization of the in vitro interaction of hGrx1–roGFP2 with ML304 was performed according to Schuh et al..

[4] = system: P. falciparum NF54[hGrx1-roGFP2] glutathione redox ratio; experiment: Cytosolic glutathione redox sensor hGrx1-roGFP2, fluorescence plate reader; assay type: cell-based, Plasmodium falciparum
Procedure: NF54^[hGrx1–roGFP2] parasites were washed and resuspended after incubation in pre-warmed Ringer’s solution to a concentration of […]. 10 µL of cells (1 × 10^6 iRBCs) were transferred to each well of a 384-well plate (black, flat bottom, Greiner Bio-One, Frickenhausen, Germany) and were measured with the plate reader Clariostar (BMG Labtech, Ortenberg, Germany) with excitation wavelengths at 405 nm and 475 nm (emission 510 nm). The gain of the 405 nm and 475 nm excitation wavelengths was adjusted to match the full dynamic range of the hGrx1–roGFP2 redox sensor. The 405/475 nm ratio was then calculated. The graphs were plotted using the GraphPad Prism 5 software (San Diego, CA, USA). A one-way ANOVA test with 95% confidence intervals with the Dunnett’s multiple comparison test (GraphPad Prism 5.0) was applied for statistical analysis of significance (*p < 0.05; **p < 0.01; ***p < 0.001).
Recently, the cytosolic glutathione redox sensor was stably integrated into NF54-attB parasites. The direct response of NF54^[hGrx1–roGFP2] to mid- and long-term exposures were determined using the time-efficient plate reader (Clariostar). […] As depicted in Fig. 7, ML304 oxidized the cytosol, leading to an increase of the 405/488 nm ratio of the probe in a concentration-dependent manner with significant differences after a 24 h incubation.

Compound: CCN1CCC[C@@H]1CNC(=O)c1ccc2c(c1)NC(=O)c1cccc(C)c1S2 [ML304]
- Oxidation of the hGrx1-roGFP2 sensor ([1]; 5 µM, 24 h incubation): completely oxidize the sensor
- Oxidation of the hGrx1-roGFP2 sensor ([1]; 50 µM, 4 h incubation): completely oxidize the sensor
- Effect on 405/488 nm ratio of hGrx1-roGFP2 ([1]; 4 h incubation, trophozoites, 1, 50 and 100 µM (p < 0.05 at 1 µM, p < 0.001 at 50 and 100 µM)): significant effects
- Effect on 405/488 nm ratio of hGrx1-roGFP2 ([1]; 24 h incubation, ring stage (p < 0.05 at 1 µM, p < 0.001 at 50 µM and 100 µM as printed)): significantly increased
- Effect on viability of Plasmodium gametocytes [2]: strongly impair the viability
- Interaction with methylene blue on late stage gametocytes [2]: synergistic effects
- Direct interaction with recombinantly purified hGrx1-roGFP2 probe [3]: excluded a direct interaction
- Increase of 405/475 nm fluorescence ratio ([4]; 8.88 µM, 24 h, ring stage, p < 0.01): threefold
- Effect on fluorescence ratio ([4]; 4 h incubation, trophozoite stage, 1 to 100 times EC50): concentration-dependent increase in fluorescence ratio
